Measurements: patent publication US20140243302A1, “BRIDGED BICYCLIC COMPOUNDS FOR THE TREATMENT OF BACTERIAL INFECTIONS” (priority 2011, published 2014)
Converted amounts (≈) assume the structure as drawn.

Test system: Staphylococcus aureus Smith
Assay: MIC assay, modified agar dilution (CLSI), S. aureus Smith
Type: cell-based
Settings: Staphylococcus aureus, agar dilution, 35° C., 16-20 hr; lowest concentration that completely inhibited growth; read-out: S_aureus_Smith_WT_MIC
Description: The potency of antibacterial agents was measured using the Minimal Inhibitory Concentration (MIC) assay. The assay measures the ability of test agents to inhibit the growth of bacteria on agar-containing medium.
The bacterial test strains used were exemplified by Staphylococcus aureus Smith, Enterococcus faecium A2373, Streptococcus pneumoniae IID554, and Escherichia coli ATCC 25922. All strains were maintained as frozen stocks held at −80° C. in skim milk. Other bacterial test strains are well known to those skilled in the art and can be used for testing.
Mueller Hinton Agar (MHA BBL; Becton Dickinson and Company, Sparks, Md.) was used as the medium. MHA was supplemented with 5% defibrinated horse blood (DHB; Nippon Biotest Laboratories inc.) to support the growth of S. pneumoniae and E. faecium.
MIC values were determined using a modified agar dilution procedure described by the Clinical and Laboratory Standards Institute (CLSI; Methods for Dilution Antimicrobial Susceptibility Tests for Bacteria That Grow Aerobically; Approved Standard—Eighth Edition. CLSI document M07-A8 [ISBN 1-56238-689-1]. Clinical and Laboratory Standards Institute, 940 West Valley Road, Suite 1400, Wayne, Pa. 19087-1898 USA, 2009).
Stock solutions (6.4 mgmL) of test compounds were prepared in 100% ultrapure dimethyl sulfoxide (DMSO; source) on the day of the assay. Subsequent serial dilutions were performed to generate solutions with concentrations ranging from 6.4 to 0.0002 mgmL in 100% DMSO.
Agar medium containing test compound was prepared by adding the dilutions of antimicrobial solution to molten MHA at a temperature of 45-50° C. The agar and antimicrobial solution were mixed thoroughly, poured into petri dishes, and allowed to solidify at room temperature. The final concentration of test compounds in the MHA medium ranged from 128 to 0.001 μg/mL with two-fold dilutions. MHA plates lacking antibacterial compound were used for growth controls.
Prior to susceptibility testing, the bacterial isolates were removed from frozen storage, thawed at room temperature, sub-cultured to MHA medium and incubated overnight at 35° C. S. pneumoniae and E. faecium were subcultured on MHA supplemented with 5% DHB at 35° C. with […]. Colonies from each plate were suspended in normal saline. This suspension was adjusted to the turbidity of a 0.5 McFarland standard, 1-2×10^8 colony forming units (CFU) per mL, and diluted 100-fold to 1-2×10^6 CFUmL.
Suspensions of bacterial cultures were applied to the surface of MHA plates containing test compound as well as to a growth control plate lacking test compound using an inoculum-replicating device with 4 mm pins. The replicating device applied 5 uL of the bacterial suspension such that each spot contained approx. 1×10^4 CFU. Plates were dried for about 40 min and incubated at 35° C. for 16-20 hr prior to scoring.

Row | SMILES | MIC [µg/mL]
1 | COc1ccc2ncc(C#N)c(CCC34CCC(NCc5ccc6c(n5)NC(=O)CO6)(CC3)CO4)c2n1 [Example 44, 6-Methoxy-4-(2-(4-((3-oxo-3,4-dihydro-2H-pyrido[3,2-b][1,4]oxazin-6-yl)methylamino)-2-oxabicyclo[2.2.2]octan-1-yl)ethyl)-1,5-naphthyridine-3-carbonitrile] | 0.016 (≈ 0.032 µM)
2 | CCOC(=O)c1csc(CNC23CCC(CCc4c(F)cnc5ccc(OC)nc45)(CC2)OC3)n1 [Example 86, Ethyl 2-(((1-(2-(3-Fluoro-6-methoxy-1,5-naphthyridin-4-yl)ethyl)-2-oxabicyclo[2.2.2]octan-4-yl)amino)methyl)thiazole-4-carboxylate] | 16 (≈ 32 µM)
3 | COc1ccc2ncc(=O)n(CCC34CCC(NCc5cc6c(cn5)OCCO6)(CC3)CO4)c2n1 [Example 122, 4-(2-(4-((2,3-Dihydro-[1,4]dioxino[2,3-c]pyridin-7-yl)methylamino)-2-oxabicyclo[2.2.2]octan-1-yl)ethyl)-6-methoxypyrido[3,2-b]pyrazin-3(4H)-one] | 0.063 (≈ 0.131 µM)
4 | COc1ccc2ncc(F)c(CCC34CCC(NS(=O)(=O)c5ccc(C)c(F)c5)(CC3)CO4)c2n1 [Example 71, 3-Fluoro-N-(1-(2-(3-fluoro-6-methoxy-1,5-naphthyridin-4-yl)ethyl)-2-oxabicyclo[2.2.2]octan-4-yl)-4-methylbenzenesulfonamide] | 1 (≈ 1.99 µM)
5 | CC(O)CCOc1ccc2ncc(F)c(CCC34CCC(NCc5ccc6c(n5)NC(=O)CO6)(CC3)CO4)c2n1 (stereo not shown) [Example 181, 6-{[(1-{2-[3-Fluoro-6-(3-hydroxybutoxy)-1,5-naphthyridin-4-yl]ethyl}-2-oxabicyclo[2.2.2]oct-4-yl)amino]methyl}-2H-pyrido[3,2-b][1,4]oxazin-3(4H)-one] | 0.125 (≈ 0.227 µM)
6 | CC(C)(O)CCOc1ccc2ncc(F)c(CCC34CCC(NCc5ccc6c(n5)NC(=O)CO6)(CC3)CO4)c2n1 [Example 175, 6-{[(1-{2-[3-Fluoro-6-(3-hydroxy-3-methylbutoxy)-1,5-naphthyridin-4-yl]ethyl}-2-oxabicyclo[2.2.2]oct-4-yl)amino]methyl}-2H-pyrido[3,2-b][1,4]oxazin-3(4H)-one] | 1 (≈ 1.77 µM)

The remaining lines, values ahead:

Row | MIC [µg/mL] | SMILES
7 | 0.063 (≈ 0.121 µM) | CCOc1cc(C)c2ncc(F)c(CCC34CCC(NCc5ccc6c(n5)NC(=O)CO6)(CC3)CO4)c2n1 [Example 137, 6-[({1-[2-(6-Ethoxy-3-fluoro-8-methyl-1,5-naphthyridin-4-yl)ethyl]-2-oxabicyclo[2.2.2]oct-4-yl}amino)methyl]-2H-pyrido[3,2-b][1,4]oxazin-3(4H)-one]
8 | 16 (≈ 34.7 µM) | O=C1COc2ccc(CNC34CCC(CCn5c(=O)ccc6cccnc65)(CC3)OC4)nc2N1 [Example 116, 6-((1-(2-(2-Oxo-1,8-naphthyridin-1(2H)-yl)ethyl)-2-oxabicyclo[2.2.2]octan-4-ylamino)methyl)-2H-pyrido[3,2-b][1,4]oxazin-3(4H)-one]
9 | 0.06 (≈ 0.114 µM) | COc1ccc2ncc(F)c(C(O)CC34CCC(NCc5ccc6c(n5)NC(=O)CO6)(CC3)CS4)c2n1 (stereo not shown) [Example 208, 6-(((1-(2-(3-Fluoro-6-methoxy-1,5-naphthyridin-4-yl)-2-hydroxyethyl)-2-thiabicyclo[2.2.2]octan-4-yl)amino)methyl)-2H-pyrido[3,2-b][1,4]oxazin-3(4H)-one]
10 | 0.125 (≈ 0.226 µM) | O=C1COc2ccc(CNC34CCC(C(O)Cc5c(F)cnc6ccc(OCCCO)nc56)(CC3)OC4)nc2N1 (stereo not shown) [Example 158, 6-{[(1-{2-[3-Fluoro-6-(3-hydroxypropoxy)-1,5-naphthyridin-4-yl]-1-hydroxyethyl}-2-oxabicyclo[2.2.2]oct-4-yl)amino]methyl}-2H-pyrido[3,2-b][1,4]oxazin-3(4H)-one]
11 | 16 (≈ 31.6 µM) | COc1ccc2ncc(F)c(CCC34CCC(NCc5ccc6c(c5)n(C)c(=O)n6C)(CC3)CO4)c2n1 [Example 91, 5-((1-(2-(3-Fluoro-6-methoxy-1,5-naphthyridin-4-yl)ethyl)-2-oxabicyclo[2.2.2]octan-4-ylamino)methyl)-1,3-dimethyl-1H-benzo[d]imidazol-2(3H)-one]
12 | 0.5 (≈ 0.989 µM) | COc1cc(OC)c2nccc(CCC34CCC(NCc5ccc6c(n5)NC(=O)CO6)(CC3)CO4)c2n1 [Example 150, 6-((1-(2-(6,8-Dimethoxy-1,5-naphthyridin-4-yl)ethyl)-2-oxabicyclo[2.2.2]octan-4-ylamino)methyl)-2H-pyrido[3,2-b][1,4]oxazin-3(4H)-one]
13 | 0.5 (≈ 0.889 µM) | O=C1COc2ccc(CNC34CCC(CCc5c(F)cnc6ccc(N7CCC(O)CC7)nc56)(CC3)OC4)nc2N1 [Example 293, 6-((1-(2-(3-Fluoro-6-(4-hydroxypiperidin-1-yl)-1,5-naphthyridin-4-yl)ethyl)-2-oxabicyclo[2.2.2]octan-4-ylamino)methyl)-2H-pyrido[3,2-b][1,4]oxazin-3(4H)-one]
14 | 0.031 | COc1ccc2nccc(CCC34CCC(NCc5ccc6c(n5)NC(=O)CO6)(CC3)CO4)c2n1.Cl [Example 17, 6-((1-(2-(6-Methoxy-1,5-naphthyridin-4-yl)ethyl)-2-oxabicyclo[2.2.2]octan-4-ylamino)methyl)-2H-pyrido[3,2-b][1,4]oxazin-3(4H)-one Hydrochloride]
15 | 0.125 (≈ 0.261 µM) | COc1ccc2ncc(F)c(CCC34CCC(NCc5cc6cccnc6s5)(CC3)CO4)c2n1 [Example 77, 1-(2-(3-Fluoro-6-methoxy-1,5-naphthyridin-4-yl)ethyl)-N-(thieno[2,3-b]pyridin-2-ylmethyl)-2-oxabicyclo[2.2.2]octan-4-amine]
16 | > 8 | COc1ccc2ncc(F)c(CCC34CCC(NCc5cc6ccc(Cl)cc6n(C)c5=O)(CC3)CO4)c2n1 [Example 104, 7-Chloro-3-((1-(2-(3-fluoro-6-methoxy-1,5-naphthyridin-4-yl)ethyl)-2-oxabicyclo[2.2.2]octan-4-ylamino)methyl)-1-methylquinolin-2(1H)-one]
17 | 0.125 (≈ 0.246 µM) | COc1ccc2ncc(F)c(CCC34CCC(N(C)Cc5ccc6c(n5)NC(=O)CO6)(CC3)CO4)c2n1 [Example 176, 6-{[{1-[2-(3-Fluoro-6-methoxy-1,5-naphthyridin-4-yl)ethyl]-2-oxabicyclo[2.2.2]oct-4-yl}(methyl)amino]methyl}-2H-pyrido[3,2-b][1,4]oxazin-3(4H)-one]
18 | 0.016 | COc1ccc2ncc(Cl)c(/C=C/C34CCC(NCc5ccc6c(n5)NC(=O)CO6)(CC3)CC4)c2n1.Cl [Example 10, (E)-6-((4-(2-(3-Chloro-6-methoxy-1,5-naphthyridin-4-yl)vinyl)bicyclo[2.2.2]octan-1-ylamino)methyl)-2H-pyrido[3,2-b][1,4]oxazin-3(4H)-one Hydrochloride]
19 | 0.5 (≈ 1.02 µM) | O=C1COc2ccc(CNC34CCC(/C=C\c5c(Cl)cnc6ccc(O)nc56)(CC3)CC4)nc2N1 [Example 7, (Z)-6-((4-(2-(3-Chloro-6-hydroxy-1,5-naphthyridin-4-yl)vinyl)bicyclo[2.2.2]octan-1-ylamino)methyl)-2H-pyrido[3,2-b][1,4]oxazin-3(4H)-one]

Same assay, conditions: agar dilution, 35° C., 16-20 hr; lowest concentration that completely inhibited growth

Row | SMILES | S_aureus_Smith_WT_MIC [µg/mL]
20 | COc1ccc2ncc(F)c(CCC34CCC(NCc5cc6c(cn5)OCC(=O)N6)(CC3)CO4)c2n1 [Example 148, 7-((1-(2-(3-Fluoro-6-methoxy-1,5-naphthyridin-4-yl)ethyl)-2-oxabicyclo[2.2.2]octan-4-ylamino)methyl)-1H-pyrido[3,4-b][1,4]oxazin-2(3H)-one] | 0.0310
21 | COc1ccc2ncc(F)c(C(C)C(O)C34CCC(NCc5ccc6c(n5)NC(=O)CO6)(CC3)CO4)c2n1 (single isomer, unassigned) [Example 151b, 6-((1-(2-(3-Fluoro-6-methoxy-1,5-naphthyridin-4-yl)-1-hydroxypropyl)-2-oxabicyclo[2.2.2]octan-4-ylamino)methyl)-2H-pyrido[3,2-b][1,4]oxazin-3(4H)-one] | 4.00

Same assay, conditions: agar dilution, 35° C., 16-20 hr; lowest concentration that completely inhibited growth; Hydrochloride

Row | SMILES | S_aureus_Smith_WT_MIC [µg/mL]
22 | COc1ccc2ncc(=O)n(CC(O)C34CCC(NCc5ccc6c(n5)NC(=O)CO6)(CC3)CO4)c2n1.Cl (single isomer, unassigned) [Example 51b, 6-(((1-(1-hydroxy-2-(6-methoxy-3-oxopyrido[2,3-b]pyrazin-4(3H)-yl)ethyl)-2-oxabicyclo[2.2.2]octan-4-yl)amino)methyl)-2H-pyrido[3,2-b][1,4]oxazin-3(4H)-one hydrochloride] | 0.0630
